Results published in ChEMBL document CHEMBL4507300 (2021).

Key:
[1] = biological target: Serine/threonine-protein kinase PAK 2 (Homo sapiens) (UniProt Q13177); conditions: Compound concentration 1000.0 nM
[2] = biological target: MAP kinase-interacting serine/threonine-protein kinase 2 (Homo sapiens) (UniProt Q9HBH9); conditions: Compound concentration 1000.0 nM
[3] = biological target: Serine/threonine-protein kinase NIM1 (Homo sapiens) (UniProt Q8IY84); conditions: Compound concentration 1000.0 nM
[4] = biological target: Receptor-type tyrosine-protein kinase FLT3 (Homo sapiens) (UniProt P36888); conditions: Compound concentration 1000.0 nM
[5] = biological target: Calcium/calmodulin-dependent protein kinase type II subunit delta (Homo sapiens) (UniProt Q13557); conditions: Compound concentration 1000.0 nM
[6] = system: Phosphatidylinositol 4,5-bisphosphate 3-kinase catalytic subunit alpha isoform (Homo sapiens), P42336 [I800L]; conditions: Compound concentration 1000.0 nM
[7] = biological target: Tyrosine-protein kinase Srms (Homo sapiens) (UniProt Q9H3Y6); conditions: Compound concentration 1000.0 nM
Tyrosine-protein kinase Srms (Homo sapiens), sequence (Q9H3Y6 whole entry): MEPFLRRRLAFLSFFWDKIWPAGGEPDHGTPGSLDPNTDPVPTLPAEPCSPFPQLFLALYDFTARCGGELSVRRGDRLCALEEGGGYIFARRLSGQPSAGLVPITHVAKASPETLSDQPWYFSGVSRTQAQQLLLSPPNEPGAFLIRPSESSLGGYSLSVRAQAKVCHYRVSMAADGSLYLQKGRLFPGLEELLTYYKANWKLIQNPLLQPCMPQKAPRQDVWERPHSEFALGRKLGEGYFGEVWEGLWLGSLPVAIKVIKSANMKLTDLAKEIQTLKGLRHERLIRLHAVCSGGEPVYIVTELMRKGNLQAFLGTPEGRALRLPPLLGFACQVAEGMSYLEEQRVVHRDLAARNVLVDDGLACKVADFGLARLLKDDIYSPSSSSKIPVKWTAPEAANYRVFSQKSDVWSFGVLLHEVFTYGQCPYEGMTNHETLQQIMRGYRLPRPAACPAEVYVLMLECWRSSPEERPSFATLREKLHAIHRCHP

[8] = biological target: Ribosomal protein S6 kinase alpha-4 (Homo sapiens) (UniProt O75676); conditions: Compound concentration 1000.0 nM
Ribosomal protein S6 kinase alpha-4 (Homo sapiens), sequence (O75676 whole entry, looked up, the tested form may be a part): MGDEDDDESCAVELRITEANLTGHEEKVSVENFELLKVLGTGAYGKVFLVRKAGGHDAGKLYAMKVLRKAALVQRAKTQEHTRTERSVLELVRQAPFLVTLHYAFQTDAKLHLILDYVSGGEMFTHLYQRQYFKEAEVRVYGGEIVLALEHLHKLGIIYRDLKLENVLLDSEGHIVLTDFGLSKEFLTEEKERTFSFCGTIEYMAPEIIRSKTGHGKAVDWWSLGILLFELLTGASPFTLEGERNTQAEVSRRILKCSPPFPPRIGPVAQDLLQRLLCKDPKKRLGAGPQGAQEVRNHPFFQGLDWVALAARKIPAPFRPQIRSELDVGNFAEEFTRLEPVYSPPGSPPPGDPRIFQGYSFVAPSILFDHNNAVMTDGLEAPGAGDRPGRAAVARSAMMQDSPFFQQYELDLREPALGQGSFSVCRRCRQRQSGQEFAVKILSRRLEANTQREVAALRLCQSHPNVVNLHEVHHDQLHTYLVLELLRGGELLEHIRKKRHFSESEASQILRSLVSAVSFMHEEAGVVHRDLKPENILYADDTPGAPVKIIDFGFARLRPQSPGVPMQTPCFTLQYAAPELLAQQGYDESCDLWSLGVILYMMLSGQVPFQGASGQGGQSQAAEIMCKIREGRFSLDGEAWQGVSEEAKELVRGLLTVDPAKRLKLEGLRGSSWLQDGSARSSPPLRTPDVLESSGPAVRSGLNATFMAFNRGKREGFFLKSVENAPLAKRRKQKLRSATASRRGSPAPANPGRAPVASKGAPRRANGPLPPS

[9] = biological target: Ankyrin repeat and protein kinase domain-containing protein 1 (Homo sapiens) (UniProt Q8NFD2); conditions: Compound concentration 1000.0 nM
[10] = biological target: Ribosomal protein S6 kinase alpha-6 (Homo sapiens) (UniProt Q9UK32); conditions: Compound concentration 1000.0 nM
[11] = biological target: Mitogen-activated protein kinase kinase kinase 9 (Homo sapiens) (UniProt P80192); conditions: Compound concentration 1000.0 nM
[12] = biological target: Serine/threonine-protein kinase TAO2 (Homo sapiens) (UniProt Q9UL54); conditions: Compound concentration 1000.0 nM
[13] = biological target: Homeodomain-interacting protein kinase 1 (Homo sapiens) (UniProt Q86Z02); conditions: Compound concentration 1000.0 nM
[14] = biological target: Serine/threonine-protein kinase DCLK1 (Homo sapiens) (UniProt O15075); conditions: Compound concentration 1000.0 nM
[15] = system: Serine/threonine-protein kinase B-raf (Homo sapiens), P15056 [V600E]; conditions: Compound concentration 1000.0 nM
[16] = biological target: Rhodopsin kinase GRK1 (Homo sapiens) (UniProt Q15835); conditions: Compound concentration 1000.0 nM
[17] = biological target: Serine/threonine-protein kinase RIO2 (Homo sapiens) (UniProt Q9BVS4); conditions: Compound concentration 1000.0 nM
[18] = biological target: 5-hydroxytryptamine receptor 1E (Homo sapiens) (UniProt P28566); conditions: Compound concentration 10.0 uM
[19] = biological target: Serine/threonine-protein kinase 4 (Homo sapiens) (UniProt Q13043); conditions: Compound concentration 1000.0 nM
[20] = biological target: Dual specificity mitogen-activated protein kinase kinase 7 (Homo sapiens) (UniProt O14733); conditions: Compound concentration 1000.0 nM
[21] = biological target: Calcium/calmodulin-dependent protein kinase type II subunit beta (Homo sapiens) (UniProt Q13554); conditions: Compound concentration 1000.0 nM
[22] = biological target: Protein-tyrosine kinase 2-beta (Homo sapiens) (UniProt Q14289); conditions: Compound concentration 1000.0 nM
[23] = biological target: Tyrosine-protein kinase BTK (Homo sapiens) (UniProt Q06187); conditions: Compound concentration 1000.0 nM
[24] = biological target: Mitotic checkpoint serine/threonine-protein kinase BUB1 (Homo sapiens) (UniProt O43683); conditions: Compound concentration 1000.0 nM
Mitotic checkpoint serine/threonine-protein kinase BUB1 (Homo sapiens), sequence (O43683 whole entry, looked up): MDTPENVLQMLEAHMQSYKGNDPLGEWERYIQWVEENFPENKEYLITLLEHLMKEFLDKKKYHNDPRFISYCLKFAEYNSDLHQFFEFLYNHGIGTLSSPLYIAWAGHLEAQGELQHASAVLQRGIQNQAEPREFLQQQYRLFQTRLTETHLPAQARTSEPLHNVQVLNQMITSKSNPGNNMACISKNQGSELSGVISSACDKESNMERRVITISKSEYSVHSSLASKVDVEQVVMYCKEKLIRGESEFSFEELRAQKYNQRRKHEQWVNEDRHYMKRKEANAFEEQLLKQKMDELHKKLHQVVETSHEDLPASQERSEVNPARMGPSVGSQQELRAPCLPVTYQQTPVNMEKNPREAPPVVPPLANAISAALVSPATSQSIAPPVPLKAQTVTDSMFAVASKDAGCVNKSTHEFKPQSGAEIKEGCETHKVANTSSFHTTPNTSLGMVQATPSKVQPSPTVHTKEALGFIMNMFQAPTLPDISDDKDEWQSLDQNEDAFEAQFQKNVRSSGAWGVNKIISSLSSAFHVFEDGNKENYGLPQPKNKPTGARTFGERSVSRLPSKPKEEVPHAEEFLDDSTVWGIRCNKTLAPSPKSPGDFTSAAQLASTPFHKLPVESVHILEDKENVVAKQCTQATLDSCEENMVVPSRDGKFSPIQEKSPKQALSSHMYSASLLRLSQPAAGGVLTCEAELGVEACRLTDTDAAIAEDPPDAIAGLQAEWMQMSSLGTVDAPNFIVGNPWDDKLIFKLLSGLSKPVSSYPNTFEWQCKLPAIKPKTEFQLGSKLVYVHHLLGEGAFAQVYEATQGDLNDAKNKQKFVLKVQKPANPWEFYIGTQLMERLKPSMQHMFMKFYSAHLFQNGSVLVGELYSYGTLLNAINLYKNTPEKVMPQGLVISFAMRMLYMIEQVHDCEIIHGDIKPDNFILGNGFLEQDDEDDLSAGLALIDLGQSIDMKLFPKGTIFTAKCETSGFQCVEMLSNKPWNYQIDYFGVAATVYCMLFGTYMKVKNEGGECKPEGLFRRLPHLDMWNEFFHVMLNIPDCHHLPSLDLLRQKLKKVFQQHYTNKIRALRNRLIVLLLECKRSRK

[25] = biological target: Serine/threonine-protein kinase D3 (Homo sapiens) (UniProt O94806); conditions: Compound concentration 1000.0 nM
[26] = system: Receptor-type tyrosine-protein kinase FLT3 (Homo sapiens), P36888 [UNDEFINED MUTATION]; conditions: Compound concentration 1000.0 nM
[27] = system: Mast/stem cell growth factor receptor Kit (Homo sapiens), P10721 [A829P]; conditions: Compound concentration 1000.0 nM
[28] = biological target: 5-hydroxytryptamine receptor 1B (Homo sapiens) (UniProt P28222); conditions: Compound concentration 10.0 uM
[29] = biological target: Mitogen-activated protein kinase kinase kinase 15 (Homo sapiens) (UniProt Q6ZN16); conditions: Compound concentration 1000.0 nM
[30] = biological target: Homeodomain-interacting protein kinase 3 (Homo sapiens) (UniProt Q9H422); conditions: Compound concentration 1000.0 nM
[31] = biological target: Ribosomal protein S6 kinase beta-1 (Homo sapiens) (UniProt P23443); conditions: Compound concentration 1000.0 nM
Ribosomal protein S6 kinase beta-1 (Homo sapiens), sequence (P23443 whole entry, looked up): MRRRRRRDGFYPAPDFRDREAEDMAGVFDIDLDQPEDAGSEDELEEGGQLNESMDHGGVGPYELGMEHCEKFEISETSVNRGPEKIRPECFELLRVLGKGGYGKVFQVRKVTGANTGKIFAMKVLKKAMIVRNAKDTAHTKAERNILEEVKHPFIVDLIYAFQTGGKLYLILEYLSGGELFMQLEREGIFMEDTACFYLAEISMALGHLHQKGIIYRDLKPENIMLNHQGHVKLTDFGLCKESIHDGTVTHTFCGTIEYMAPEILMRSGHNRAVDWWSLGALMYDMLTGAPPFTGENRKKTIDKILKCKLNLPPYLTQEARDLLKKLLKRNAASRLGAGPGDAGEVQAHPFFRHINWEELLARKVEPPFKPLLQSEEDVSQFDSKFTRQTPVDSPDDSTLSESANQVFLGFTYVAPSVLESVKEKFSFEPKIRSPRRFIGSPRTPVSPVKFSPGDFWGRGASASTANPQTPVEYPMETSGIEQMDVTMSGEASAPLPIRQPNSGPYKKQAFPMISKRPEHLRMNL

[32] = biological target: 5-hydroxytryptamine receptor 2B (Homo sapiens, UniProt P41595); conditions: Compound concentration 10.0 uM
[33] = biological target: Epithelial discoidin domain-containing receptor 1 (Homo sapiens) (UniProt Q08345); conditions: Compound concentration 1000.0 nM
[34] = biological target: RAC-alpha serine/threonine-protein kinase (Homo sapiens) (UniProt P31749); conditions: Compound concentration 1000.0 nM
[35] = biological target: Serine/threonine-protein kinase ULK1 (Homo sapiens) (UniProt O75385); conditions: Compound concentration 1000.0 nM
Serine/threonine-protein kinase ULK1 (Homo sapiens), sequence (O75385 whole entry): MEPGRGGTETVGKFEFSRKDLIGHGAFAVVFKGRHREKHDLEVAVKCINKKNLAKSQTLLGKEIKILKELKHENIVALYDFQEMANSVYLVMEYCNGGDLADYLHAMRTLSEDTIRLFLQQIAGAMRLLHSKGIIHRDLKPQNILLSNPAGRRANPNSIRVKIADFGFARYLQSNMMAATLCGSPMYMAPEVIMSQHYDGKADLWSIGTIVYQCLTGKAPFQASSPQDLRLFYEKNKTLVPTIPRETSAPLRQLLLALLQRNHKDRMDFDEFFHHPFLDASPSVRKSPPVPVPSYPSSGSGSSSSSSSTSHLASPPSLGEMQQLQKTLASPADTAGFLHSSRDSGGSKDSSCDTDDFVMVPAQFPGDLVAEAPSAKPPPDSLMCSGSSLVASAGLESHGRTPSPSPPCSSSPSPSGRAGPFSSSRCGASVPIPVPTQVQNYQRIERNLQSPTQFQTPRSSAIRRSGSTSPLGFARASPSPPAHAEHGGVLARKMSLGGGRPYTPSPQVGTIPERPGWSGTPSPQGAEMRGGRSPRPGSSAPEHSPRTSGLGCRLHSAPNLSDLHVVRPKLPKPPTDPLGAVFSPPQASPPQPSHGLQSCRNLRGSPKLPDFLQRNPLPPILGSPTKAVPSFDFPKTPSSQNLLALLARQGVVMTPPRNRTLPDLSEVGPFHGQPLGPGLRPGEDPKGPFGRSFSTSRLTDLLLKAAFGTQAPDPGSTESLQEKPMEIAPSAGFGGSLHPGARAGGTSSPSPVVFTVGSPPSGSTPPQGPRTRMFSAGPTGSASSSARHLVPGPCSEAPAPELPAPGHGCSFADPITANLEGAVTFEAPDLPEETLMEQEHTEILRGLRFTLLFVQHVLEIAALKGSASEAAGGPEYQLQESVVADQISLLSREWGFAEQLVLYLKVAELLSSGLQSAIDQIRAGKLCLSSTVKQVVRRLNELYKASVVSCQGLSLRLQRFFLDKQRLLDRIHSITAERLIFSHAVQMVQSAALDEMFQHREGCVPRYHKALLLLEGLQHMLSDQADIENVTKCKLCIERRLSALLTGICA

[36] = biological target: Serine/threonine-protein kinase 36 (Homo sapiens) (UniProt Q9NRP7); conditions: Compound concentration 1000.0 nM
[37] = biological target: Serine/threonine-protein kinase 32C (Homo sapiens) (UniProt Q86UX6); conditions: Compound concentration 1000.0 nM
[38] = biological target: Mitogen-activated protein kinase 13 (Homo sapiens) (UniProt O15264); conditions: Compound concentration 1000.0 nM
[39] = biological target: Atypical kinase COQ8B, mitochondrial (Homo sapiens) (UniProt Q96D53); conditions: Compound concentration 1000.0 nM
[40] = biological target: Tyrosine-protein kinase Tec (Homo sapiens) (UniProt P42680); conditions: Compound concentration 1000.0 nM
Tyrosine-protein kinase Tec (Homo sapiens), sequence (P42680 whole entry): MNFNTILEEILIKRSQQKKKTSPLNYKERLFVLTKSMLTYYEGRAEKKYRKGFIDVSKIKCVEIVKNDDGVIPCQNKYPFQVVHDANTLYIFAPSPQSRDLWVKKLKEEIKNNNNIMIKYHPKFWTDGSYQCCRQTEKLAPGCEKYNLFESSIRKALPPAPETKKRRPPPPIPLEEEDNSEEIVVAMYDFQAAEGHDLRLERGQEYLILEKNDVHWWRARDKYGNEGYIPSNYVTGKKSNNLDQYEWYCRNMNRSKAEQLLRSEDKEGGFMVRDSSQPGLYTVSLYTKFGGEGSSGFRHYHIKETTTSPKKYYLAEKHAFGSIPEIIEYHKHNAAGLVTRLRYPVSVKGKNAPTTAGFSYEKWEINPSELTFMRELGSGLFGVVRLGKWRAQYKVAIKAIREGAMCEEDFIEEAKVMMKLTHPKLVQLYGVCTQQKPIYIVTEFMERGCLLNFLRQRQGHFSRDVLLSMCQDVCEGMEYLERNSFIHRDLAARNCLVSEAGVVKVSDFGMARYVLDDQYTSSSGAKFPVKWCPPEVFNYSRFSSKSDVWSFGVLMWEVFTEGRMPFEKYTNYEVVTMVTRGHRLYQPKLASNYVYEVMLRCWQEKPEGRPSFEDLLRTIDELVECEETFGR

[41] = biological target: Focal adhesion kinase 1 (Homo sapiens) (UniProt Q05397); conditions: Compound concentration 1000.0 nM
[42] = system: Receptor-type tyrosine-protein kinase FLT3 (Homo sapiens), P36888 [D835H]; conditions: Compound concentration 1000.0 nM
[43] = biological target: Histamine H3 receptor (Homo sapiens) (UniProt Q9Y5N1); conditions: Compound concentration 10.0 uM
[44] = biological target: Serine/threonine-protein kinase PLK1 (Homo sapiens) (UniProt P53350); conditions: Compound concentration 1000.0 nM
[45] = biological target: Ribosomal protein S6 kinase alpha-4 (Homo sapiens) (UniProt O75676); conditions: Compound concentration 1000.0 nM; remark: listed apart in the source

MAP kinase-interacting serine/threonine-protein kinase 2 (Homo sapiens), sequence (Q9HBH9 whole entry, looked up): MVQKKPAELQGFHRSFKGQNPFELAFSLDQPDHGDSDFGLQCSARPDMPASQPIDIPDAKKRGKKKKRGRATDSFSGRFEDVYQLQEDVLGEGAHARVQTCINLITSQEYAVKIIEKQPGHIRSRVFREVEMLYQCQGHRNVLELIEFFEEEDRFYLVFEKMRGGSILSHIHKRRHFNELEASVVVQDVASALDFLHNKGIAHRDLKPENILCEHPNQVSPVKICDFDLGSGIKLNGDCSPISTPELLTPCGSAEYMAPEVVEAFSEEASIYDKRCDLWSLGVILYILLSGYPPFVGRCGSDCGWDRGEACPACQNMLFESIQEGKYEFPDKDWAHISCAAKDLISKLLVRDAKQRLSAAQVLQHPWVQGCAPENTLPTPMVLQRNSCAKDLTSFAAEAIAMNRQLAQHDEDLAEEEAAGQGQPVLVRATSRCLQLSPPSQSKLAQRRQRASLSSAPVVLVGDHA

COc1cccc(CNC(=O)c2nc3scc(COCc4ccc(C(=O)O)cc4)c3c(=O)[nH]2)c1 [T-26c]
inactive: residual activity [1] 100% | residual activity [2] 73.2% | residual activity [3] 100% | residual activity [4] 85% | residual activity [5] 100% | residual activity [6] 77.2% | residual activity [7] 78.3% | residual activity [8] 82.3% | residual activity [9] 70.9% | residual activity [10] 63.5% | residual activity [11] 100% | residual activity [12] 59.8% | residual activity [13] 88.4% | residual activity [14] 60.4% | residual activity [15] 79.8% | residual activity [16] 57.5% | residual activity [17] 72.4% | inhibition [18] -0.179% | residual activity [19] 75% | residual activity [20] 81.2% | residual activity [21] 96.8% | residual activity [22] 85.3% | residual activity [23] 63% | residual activity [24] 70.2% | residual activity [25] 100% | residual activity [26] 58.4% | residual activity [27] 69.2% | inhibition [28] 15.9% | residual activity [29] 100% | residual activity [30] 73.7% | residual activity [31] 96.1% | inhibition [32] -9.07% | residual activity [33] 100% | residual activity [34] 99.9% | residual activity [35] 74% | residual activity [36] 100% | residual activity [37] 89.6% | residual activity [38] 100% | residual activity [39] 93.8% | residual activity [40] 86% | residual activity [41] 100% | residual activity [42] 92.9% | inhibition [43] -9.59% | residual activity [44] 54.1% | residual activity [45] 100%
